# Assays:
# SW48 = experiment: MTT cytotoxicity assay, 72 hour incubation; type: cell-based; conditions: Homo sapiens, SW48, 3 runs
# Protocol: (§1) The cytotoxicity of compounds 26, 34, 50,58 and 68 were evaluated in a variety of cell lines using the standard MTT assay for a 72 hour incubation period (Table 1).
# (§2) Tumor cell lines were maintained in RPMI1640 medium supplemented with 10% heat-inactivated fetal bovine serum, 2 mM L-glutamine and 1 mM sodium pyruvate. 1800 cells per well were seeded in a volume of 180 μl in a 96-well flat bottom polystyrene plate. The cells were allowed to adhere overnight at 37° C. in a CO2 incubator. Ligands were initially formulated in DMSO, and stocks stored at −80° C. They were then further formulated at lox concentration in RPMI1640 medium. 20 ul of diluted samples were added into each treatment well. On each plate, blank wells with no cells, and untreated wells containing cells, were included. Plates were then cultured at 37° C. in a CO2 incubator for 72 hrs. Cytotoxicity was evaluated using a tetrazolium salt-based assay, the MT assay. After 72 hours, the supernatant was removed from each well and 200 μl of a sterile filtered 500 μg/ml MT solution in water added to each well. The plates were then incubated at 37° C. in a CO2 incubator for 4 hrs. The supernatant was then removed and the formazan crystals formed solubilized by adding 150 μl of DMSO to each well. The plate was then read on a plate reader at 540 nm, and percentage cell survival calculated as follows: ((mean absorbance treated wells at concentration x—mean absorbance blank wells)÷(mean absorbance untreated wells at concentration x—mean absorbance blank wells))×100. Data were plotted as concentration in nM vs. % cell survival in Microsoft Excel, and IC50 values (concentration where cell survival is reduced by a half) were determined from the graph.
# SK-BR-3 = experiment: MTT cytotoxicity assay, 72 hour incubation; type: cell-based; conditions: Homo sapiens, 3 runs
# Protocol: as §1, §2
# SW 620 = experiment: MTT cytotoxicity assay, 72 hour incubation; type: cell-based; conditions: Homo sapiens, SW-620, 3 runs
# Protocol: as §1, §2
# ZR 75-1 = experiment: MTT cytotoxicity assay, 72 hour incubation; type: cell-based; conditions: Homo sapiens, 3 runs
# Protocol: as §1, §2
# MCF-7 = experiment: MTT cytotoxicity assay, 72 hour incubation; type: cell-based; conditions: Homo sapiens, MCF7, 3 runs
# Protocol: as §1, §2
# [1] = test system: fluorescently labelled DNA duplexes; experiment: FRET DNA melting; type: binding
# Protocol: FRET DNA Melting FRET DNA melting studies were undertaken on 26 and 34 using a number of fluorescently labelled sequences. The sequences (FIG. 10) were designed to provide additional evidence that 26 and 34 can form inter- and intrastrand cross-links at the site 5′-XYWWYWYX-3′.
# The short duplexes used in this FRET study are relatively unstable in the duplex form with a melting temperature below 30° C. so that, in the absence of ligand, a large part of the melting occurs below the starting temperature of the experiment.
# Oligonucleotides were obtained from ATDbio (Southampton, UK) in lyophilised form. They were labelled with a fluorophore molecule (F=fluorescein) at the 5′-end and a quencher molecule (Q=dabcyl) at the 3′-end of the complementary strand. Each oligonucleotide was dissolved in distilled H2O to form stock solutions of 100 μM. Working solutions of 5 μM were prepared by diluting the stock solution with distilled H2O.
# The following buffers were used: 250 mM phosphate buffer pH 7.4 (consisting of sodium dihydrogen phosphate and sodium phosphate diluted in distilled H2O) and 5 M sodium chloride buffer. All buffers and distilled H2O were filtered through a […] filter prior to use.
# The reaction mixture was comprised of 4 μL of 250 mM phosphate buffer (final concentration of 50 mM), 4 μL flourophor and 4 μL quencher molecule of the appropriate oligonucleotide for a final concentration of 0.2 μM, 4 μL 5 M sodium chloride (final concentration of 1 M NaCl), and 4 μL of distilled H2O. This mixture was heated in an Eppendorf tube at 90° C. for 1 min and slowly cooled down to room temperature. This process was carried out to anneal the single strands to double-stranded DNA. Following this, 4 μL of the ligand was added in the desired concentration and the mixture incubated overnight either at room temperature or 4° C. […] This mixture was analysed without prior annealing.
# Fluorescence melting profiles were measured using a Roche LightCycler using a total reaction volume of 20 μL. […] Annealing steps and melting steps were all recorded and changes in fluorescence were measured at 520 nm. […]
# [2] = test system: HexA and MS1 DNA fragments; experiment: DNA footprinting; type: binding; conditions: X is any base, Y is G or C, W is A or T; overnight incubation
# Protocol: The sequence selectivity of 26 and 34 was investigated using a modification of the previously established DNA footprinting assay^25. Following an overnight incubation of the ligand-DNA complexes, the mixture was mixed with strand separation buffer containing 10 mM EDTA, 10 mM NaOH, 0.1% bromophenol blue, 80% formamide and incubated at 100° C. for 3 min. The mixture was then immediately cooled on ice and run on an 8% denaturing gel.
# Footprinting reactions were performed as previously described^[5] using the DNA fragments HexA and HexB, which together contain all 64 symmetrical hexanucleotide sequences^[6], and MS1 that contains all possible […] tetranucleotide sequences^[7]. The DNA fragments were obtained by cutting the parent plasmids with HindIII and SacI (for HexA and MS1) or EcoRI and PstI (for HexB), and were labelled at the 3′-end of the HindIII or EcoRI sites with [α-^32P]dATP using reverse transcriptase or exo-Klenow fragment. After gel purification, the radiolabelled DNA was dissolved in 10 mM Tris-HCl pH 7.5 containing 0.1 mM EDTA, at a concentration of about 10 c.p.s per μL as determined on a hand held Geiger counter. 1.5 μL of radiolabelled DNA was mixed with 1.5 μL ligand that had been freshly diluted in 10 mM Tris-HCl pH 7.5, containing 10 mM NaCl. […]
structure (smiles),measurement,setting,value
"CNS(=O)(=O)c1ccc(C2=CCN3C(=O)c4cc(OC)c(OCc5cccc(COc6cc7c(cc6OC)C(=O)N6CC=C(c8ccc(S(=O)(=O)NC)cc8)C[C@H]6C=N7)n5)cc4N=C[C@@H]3C2)cc1 [Compound 34, 4,4′-((6aS,6a′S)-((Pyridine-2,6-diylbis(methylene))bis(oxy))bis(2-methoxy-12-oxo-6a,7,10,12-tetrahydrobenzo[e]pyrido[1,2-α][1,4]diazepine-3,8-diyl))bis(N-methylbenzenesulfonamide)]",IC50,SW48,0.0077 nM
same,IC50,SK-BR-3,0.041 nM
same,IC50,SW 620,0.325 nM
same,IC50,ZR 75-1,0.159 nM
same,IC50,MCF-7,0.057 nM
same,Tm of duplex with ligand,"[1]; 5′-AAAAAAGAGAACAAAAAA-3′ (Seq 23), interstrand cross-link",~71 °C
same,stabilisation of duplex,"[1]; 5′-AAAAAAGATCAAAAAA-3′ (Seq 12), traditional PBD binding site",limited stabilisation
same,Tm of duplex with ligand,"[1]; AAAAAAGAGAGAAAAAA-3′ (Seq 20), intrastrand cross-link",66 °C
same,general code of the footprints (preferred binding sites),[2],XYWWYWYX
